# Assay results from PubChem BioAssay (NCI).
#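 1) Cells in 96-well plates. 2) Compound, 48 h, 5 concentrations. 3) Linear interpolation between surrounding doses. 4) Unreached endpoint = highest concentration. Abbreviation: GI50, concentration required for 50% inhibition of growth. Definition used: TGI = concentration required for complete inhibition of growth.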
# Experiments:
# Experiment in all cases: DTP human tumour cell line panel, 48 h
# TK-10 renal = system: TK-10 renal
# SF-539 CNS = system: SF-539 CNS
# NCI-H23 lung = system: NCI-H23 lung
# MDA-MB-435 = system: MDA-MB-435
# SK-OV-3 ovarian = system: SK-OV-3 ovarian
# NCI-H226 lung = system: NCI-H226 lung
# UACC-257 melanoma = system: UACC-257 melanoma
# HL-60(TB) leukemia = system: HL-60(TB) leukemia
# UO-31 renal = system: UO-31 renal
# HOP-92 NSCLC = system: HOP-92 NSCLC
# RXF 393 renal = system: RXF 393 renal
# HCC-2998 colon = system: HCC-2998 colon
# ACHN renal = system: ACHN renal
# HOP-62 NSCLC = system: HOP-62 NSCLC
# HS 578T breast = system: HS 578T breast
# MDA-MB-231 breast = system: MDA-MB-231 breast
# BT-549 breast = system: BT-549 breast
# A549 NSCLC = system: A549 NSCLC
# MOLT-4 leukemia = system: MOLT-4 leukemia
# SN12C renal = system: SN12C renal
# MDA-MB-468 breast = system: MDA-MB-468 breast
# T-47D breast = system: T-47D breast
# M14 melanoma = system: M14 melanoma
# MALME-3M melanoma = system: MALME-3M melanoma
# HCT-116 colon = system: HCT-116 colon
# SK-MEL-28 melanoma = system: SK-MEL-28 melanoma
# SR leukemia = system: SR leukemia
# IGROV1 ovarian = system: IGROV1 ovarian
# CCRF-CEM leukemia = system: CCRF-CEM leukemia
# COLO 205 colon = system: COLO 205 colon
# SK-MEL-2 melanoma = system: SK-MEL-2 melanoma
# 786-0 renal = system: 786-0 renal
# NCI/ADR-RES ovarian = system: NCI/ADR-RES ovarian
# SF-268 CNS = system: SF-268 CNS
# SF-295 CNS = system: SF-295 CNS
# HCT-15 colon = system: HCT-15 colon
# EKVX NSCLC = system: EKVX NSCLC
# SNB-19 CNS = system: SNB-19 CNS
# CAKI-1 renal = system: CAKI-1 renal
# MCF7 breast = system: MCF7 breast
# LOX IMVI melanoma = system: LOX IMVI melanoma
# SK-MEL-5 melanoma = system: SK-MEL-5 melanoma
# PC-3 prostate = system: PC-3 prostate
# KM12 colon = system: KM12 colon
# OVCAR-3 ovarian = system: OVCAR-3 ovarian
# SW-620 colon = system: SW-620 colon
# OVCAR-8 ovarian = system: OVCAR-8 ovarian
# A498 renal = system: A498 renal
# K-562 leukemia = system: K-562 leukemia
# NCI-H460 lung = system: NCI-H460 lung
# NCI-H522 lung = system: NCI-H522 lung
# U251 CNS = system: U251 CNS
# OVCAR-5 ovarian = system: OVCAR-5 ovarian
# HT29 colon = system: HT29 colon
# DU-145 prostate = system: DU-145 prostate
# UACC-62 melanoma = system: UACC-62 melanoma
# OVCAR-4 ovarian = system: OVCAR-4 ovarian
# RPMI-8226 leukemia = system: RPMI-8226 leukemia
structure (smiles),measurement,setting,value
CC(=O)c1ccc(Nc2nc(SC(C)C)nc(-c3ccccc3)c2C#N)cc1,GI50,TK-10 renal,2.54 µM
same,TGI,TK-10 renal,5.67 µM
same,GI50,SF-539 CNS,2.17 µM
same,TGI,SF-539 CNS,7.69 µM
same,GI50,NCI-H23 lung,2.46 µM
same,TGI,NCI-H23 lung,11.2 µM
same,GI50,MDA-MB-435,5.06 µM
same,TGI,MDA-MB-435,> 100 µM
same,GI50,SK-OV-3 ovarian,5.02 µM
same,TGI,SK-OV-3 ovarian,38.9 µM
same,GI50,NCI-H226 lung,2.54 µM
same,TGI,NCI-H226 lung,7.14 µM
same,GI50,UACC-257 melanoma,> 100 µM
same,TGI,UACC-257 melanoma,> 100 µM
same,GI50,HL-60(TB) leukemia,> 100 µM
same,TGI,HL-60(TB) leukemia,> 100 µM
same,GI50,UO-31 renal,2.03 µM
same,TGI,UO-31 renal,4.94 µM
same,GI50,HOP-92 NSCLC,1.91 µM
same,TGI,HOP-92 NSCLC,7.86 µM
same,GI50,RXF 393 renal,2.08 µM
same,TGI,RXF 393 renal,7.48 µM
same,GI50,HCC-2998 colon,15.8 µM
same,TGI,HCC-2998 colon,> 100 µM
same,GI50,ACHN renal,2.15 µM
same,TGI,ACHN renal,5.17 µM
same,GI50,HOP-62 NSCLC,2.13 µM
same,TGI,HOP-62 NSCLC,5.38 µM
same,GI50,HS 578T breast,3.09 µM
same,TGI,HS 578T breast,23.8 µM
same,GI50,MDA-MB-231 breast,2.9 µM
same,TGI,MDA-MB-231 breast,8.23 µM
same,GI50,BT-549 breast,24.8 µM
same,TGI,BT-549 breast,> 100 µM
same,GI50,A549 NSCLC,72.9 µM
same,TGI,A549 NSCLC,> 100 µM
same,GI50,MOLT-4 leukemia,> 100 µM
same,TGI,MOLT-4 leukemia,> 100 µM
same,GI50,SN12C renal,11.4 µM
same,TGI,SN12C renal,> 100 µM
same,GI50,MDA-MB-468 breast,5.08 µM
same,TGI,MDA-MB-468 breast,50.2 µM
same,GI50,T-47D breast,81.6 µM
same,TGI,T-47D breast,> 100 µM
same,GI50,M14 melanoma,21.9 µM
same,TGI,M14 melanoma,> 100 µM
same,GI50,MALME-3M melanoma,14.1 µM
same,TGI,MALME-3M melanoma,> 100 µM
same,GI50,HCT-116 colon,1.34 µM
same,TGI,HCT-116 colon,6.69 µM
same,GI50,SK-MEL-28 melanoma,16.9 µM
same,TGI,SK-MEL-28 melanoma,> 100 µM
same,GI50,SR leukemia,> 100 µM
same,TGI,SR leukemia,> 100 µM
same,GI50,IGROV1 ovarian,8.02 µM
same,TGI,IGROV1 ovarian,> 100 µM
same,GI50,CCRF-CEM leukemia,> 100 µM
same,TGI,CCRF-CEM leukemia,> 100 µM
same,GI50,COLO 205 colon,15.6 µM
same,TGI,COLO 205 colon,> 100 µM
same,GI50,SK-MEL-2 melanoma,> 100 µM
same,TGI,SK-MEL-2 melanoma,> 100 µM
same,GI50,786-0 renal,2.07 µM
same,TGI,786-0 renal,4.81 µM
same,GI50,NCI/ADR-RES ovarian,2.82 µM
same,TGI,NCI/ADR-RES ovarian,10.6 µM
same,GI50,SF-268 CNS,5.35 µM
same,TGI,SF-268 CNS,> 100 µM
same,GI50,SF-295 CNS,1.4 µM
same,TGI,SF-295 CNS,3.25 µM
same,GI50,HCT-15 colon,7.61 µM
same,TGI,HCT-15 colon,> 100 µM
same,GI50,EKVX NSCLC,4.71 µM
same,TGI,EKVX NSCLC,> 100 µM
same,GI50,SNB-19 CNS,2.05 µM
same,TGI,SNB-19 CNS,4.63 µM
same,GI50,CAKI-1 renal,2.82 µM
same,TGI,CAKI-1 renal,13.2 µM
same,GI50,MCF7 breast,4.74 µM
same,TGI,MCF7 breast,> 100 µM
same,GI50,LOX IMVI melanoma,3.51 µM
same,TGI,LOX IMVI melanoma,> 100 µM
same,GI50,SK-MEL-5 melanoma,5.03 µM
same,TGI,SK-MEL-5 melanoma,20.3 µM
same,GI50,PC-3 prostate,8.98 µM
same,TGI,PC-3 prostate,> 100 µM
same,GI50,KM12 colon,> 100 µM
same,TGI,KM12 colon,> 100 µM
same,GI50,OVCAR-3 ovarian,40 µM
same,TGI,OVCAR-3 ovarian,> 100 µM
same,GI50,SW-620 colon,3.77 µM
same,TGI,SW-620 colon,64.1 µM
same,GI50,OVCAR-8 ovarian,3.29 µM
same,TGI,OVCAR-8 ovarian,> 100 µM
same,GI50,A498 renal,24.2 µM
same,TGI,A498 renal,71.9 µM
same,GI50,K-562 leukemia,9.17 µM
same,TGI,K-562 leukemia,> 100 µM
same,GI50,NCI-H460 lung,3.53 µM
same,TGI,NCI-H460 lung,> 100 µM
same,GI50,NCI-H522 lung,8.3 µM
same,TGI,NCI-H522 lung,> 100 µM
same,GI50,U251 CNS,1.32 µM
same,TGI,U251 CNS,4.26 µM
same,GI50,OVCAR-5 ovarian,21.2 µM
same,TGI,OVCAR-5 ovarian,> 100 µM
same,GI50,HT29 colon,3.81 µM
same,TGI,HT29 colon,> 100 µM
same,GI50,DU-145 prostate,17.6 µM
same,TGI,DU-145 prostate,> 100 µM
same,GI50,UACC-62 melanoma,43.8 µM
same,TGI,UACC-62 melanoma,> 100 µM
same,GI50,OVCAR-4 ovarian,5.07 µM
same,TGI,OVCAR-4 ovarian,> 100 µM
same,GI50,RPMI-8226 leukemia,> 100 µM
same,TGI,RPMI-8226 leukemia,> 100 µM
